Results from patent US11378572B2, “Therapeutic agent for immune cell migration-caused disease and method for screening same” (ZYMEDI CO., LTD., priority 2017, dated 2022).
Blank lines part the entries; values can stand above or below the compound they belong to.

Experiments:
[1] = target: T1, KRS (Mus musculus, UniProt Q99MN1); experiment: KRS level in plasma membrane/cytosol fractions by western blot (KRS translocation to the plasma membrane); format: cell-based; conditions: RAW 264.7 cells, LN421 l g/ml, 0, 12, 24 hour
T1 construct: KRS, which is expressed in monocytes/macrophages and usually present in the cytoplasmic domain, translocates to the plasma membrane by LN421 treatment; endogenous in cells; host or cells: RAW 264.7
Method: After dispensing RAW 264.7 cells (2×10^6 cells) in 100 mm dish and incubating for 18 hours, cells were treated with LN421 l g/ml in serum free DMEM media and harvested at 0 hour, 12 hour, 24 hour. Proteins of RAW 264.7 cells were separated into the cytosol and membrane fractions using ProteoExtract Subcellular Proteome Extraction Kit (Calbiotech, cat #539790). Obtained proteins were electrophoresed and transferred to PVDF membrane (Milipore) and blocked with 3% skim milk. KRS was then detected by western blot. Specifically, KRS polyclonal antibody (rabbit, Neomics, Co. Ltd. #NMS-01-0005) was added and reacted for 1 hour. Unbound antibody was removed and the membrane was added and reacted with anti-rabbit secondary antibody (ThermoFisher Scientific, #31460). After reacting with the secondary antibody, films were exposed in the dark room using ECL reagent as a substrate. […]
First, in order to determine whether various KRS inhibitor candidates could exert inhibitory effect on the KRS translocation to the plasma membrane, RAW 264.7 cells (2×10^6 cells) were dispensed in 100 mm dishes and incubated for 18 hours, followed by treatment with laminin 421 1 μg/ml in serum free DMEM, and 100 nM of each of various KRS inhibitor candidates, and cells were further incubated for 12 hours. […] Afterwards, KRS was detected by western blot, and the specific method were as described in Example 3. […]

[2] = test system: RAW 264.7 cells; experiment: Transwell migration assay of monocytes/macrophages; format: cell-based
Method: Among several extracellular matrix (ECM), it was examined which ECM promotes the migration and infiltration of immune cells, typically monocytes/macrophages. A transwell migration assay was performed using collagen (Col), fibronectin (FN) and laminin (LN) as extracellular matrices, and detailed methods were as follows. Transwells (Corning, #3421-5 mm) were coated with gelatin (0.5 mg/ml) and RAW 264.7 cells (1×10^5 cells/well) were seeded into the top chambers. Serum free DMEM (500 μl) containing 10 μg/ml of laminin (laminin mixture, Biolamina), fibronectin or collagen, respectively, was placed in the bottom chambers. After 24 hours, cells were fixed with 70% methanol for 30 minutes and stained with 50% hematoxylin for 30 minutes. After removing non-migrating cells from the top of the membrane with a cotton swab, the membrane was taken and mounted on the slide. Migrating cells on the underside of the membrane were observed and quantified under a high magnification microscope.
Effect of laminin subtypes on the immune cell migration and infiltration was evaluated. A transwell migration assay was performed in the same manner as in Example 1 using LN111, LN211, LN221, LN411, LN421, LN511, and LN521 as various laminin subtype proteins (purchased from Biolamina). Specific sequences of laminin subtypes are referred to α4 chain of SEQ ID NO:4, α2 chain of SEQ ID NO: 10, α5 chain of SEQ ID NO: 11, β2 chain of SEQ ID NO:6, β1 chain of SEQ ID NO: 12, γ1 chain of SEQ ID NO: 8. according to the chain forming each laminin subtype,
For each of the transformed macrophages, a transwell migration assay was performed in the same manner as in Example 1 using 1 μg/ml of laminin 421.
Thus identified agents as inhibiting the translocation of KRS to the plasma membrane was added to the LN421-treated macrophages to perform a transwell migration assay. […] Migrating cells on the underside of the membrane were observed and quantified under a high magnification microscope. […]

[3] = test system: PAH model; experiment: Monocrotaline PAH model, anti-KRS antibody; format: in vivo, SD rats
Description: To induce PAH in 7-week-old SD rats (Orient bio), 60 mpk of MCT (monocrotaline) was subcutaneously injected. Then rats were divided into 4 groups (5 animals in each group), and administered with either of 1 mpk of mock human IgG (Thermo Fisher Scientific, negative control), 1 mpk or 10 mpk of anti-KRS antibody (N3 antibody), 25 mpk of sildenafil (positive control) for 3 weeks. All antibodies were intravenously injected twice a week and sildenafil was orally administered everyday.
Three weeks later, rats were anesthetized with isoflurane, and blood flow and pressure were measured using an MPVS cardiovascular pressure and volume system (model name: MPVS Ultra, manufactured by Millar Instruments). Right ventricular systolic pressure (RVESP) and diastolic pressure, left ventricular systolic pressure and diastolic pressure were measured using a dedicated catheter (Mikro-Tip rat pressure catheter, manufactured by Millar Instruments). Cardiac output was measured using a perivascular blood flow probe (Transonic® Flowprobes, manufactured by […]), and experimental techniques were performed in the same manner as described in the literature: Pacher P, Nagayama T, Mukhopadhyay P, Batkai S, Kass D A. Measurement of cardiac function using pressure-volume conductance catheter technique in mice and rats. Nat Protoc 2008, 3(9):1422-34.
Collected lungs were fixed in PFA (paraformaldehyde) according to a conventional procedure, and then embedded in paraffin through water washing, dehydration, and tissue clearing processes. Lung tissue paraffin blocks of rats were cut to a thickness of […] and slides were prepared. Thereafter, staining was performed as follows. First, slides were treated with xylene 3 times for 5 minutes, followed by treatments with 100% ethanol, 95% ethanol, 90% ethanol, 70% ethanol, DW for 2 minutes in this order and washed with PBS for 5 minutes. After treatment with 0.3% H2O2, slides were washed twice with PBS for 5 minutes. After soaking in 0.01M citrate buffer and heating, slides were washed with PBS-T (0.03% tween 20). After 30 minutes blocking at room temperature (2% BSA & 2% goat serum in PBS), tissues were stained with anti-CD68 antibody (1:200, ED1 clone, Abcam) overnight at 4° C. After washing three times with PBS-T for 5 minutes, tissues were treated with polymer-HRP anti-mouse envision kit (DAKO) for 1 hour at 4° C. After washing three times with PBS-T, color was developed by treatment with DAB substrate buffer and DAB chromogen 20. Thus stained tissues were treated with Mayer's hematoxylin (Sigma) for 1 minute, and then treated twice for 2 minutes in the order of 70% ethanol, 90% ethanol, 95% ethanol, and 100% ethanol. Finally, xylene was treated three times for 5 minutes and observed with an optical microscope.

[4] = MCT + sildenafil 25 mpk oral everyday, 3 weeks (n = 5)

T1 sequence (Q99MN1 whole entry, the tested form may be a part): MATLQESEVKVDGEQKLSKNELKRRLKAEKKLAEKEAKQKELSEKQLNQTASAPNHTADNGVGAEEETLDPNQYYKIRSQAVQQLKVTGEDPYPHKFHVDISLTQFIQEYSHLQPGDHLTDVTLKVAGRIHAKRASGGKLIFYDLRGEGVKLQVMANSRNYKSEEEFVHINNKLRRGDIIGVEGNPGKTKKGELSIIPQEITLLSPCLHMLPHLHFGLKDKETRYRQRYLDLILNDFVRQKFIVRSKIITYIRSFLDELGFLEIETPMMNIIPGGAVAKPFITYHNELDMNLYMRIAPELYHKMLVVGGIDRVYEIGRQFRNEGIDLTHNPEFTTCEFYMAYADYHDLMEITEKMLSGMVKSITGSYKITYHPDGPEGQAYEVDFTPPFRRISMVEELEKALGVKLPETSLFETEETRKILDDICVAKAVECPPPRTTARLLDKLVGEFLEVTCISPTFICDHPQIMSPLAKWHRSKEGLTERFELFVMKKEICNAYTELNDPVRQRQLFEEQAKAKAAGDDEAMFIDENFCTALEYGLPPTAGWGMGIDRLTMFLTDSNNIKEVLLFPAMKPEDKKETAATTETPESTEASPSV

- level of KRS detection in the plasma membrane fractions [1]: increased
Compound: LN421: laminin subtype α4β2γ1, purchased from Biolamina [reference compound]
- migration of monocytes/macrophages among laminin subtypes ([2]; LN111, LN211, LN221, LN411, LN421, LN511, LN521 compared): specifically reacted

Compound: laminin [reference compound]
- migration of monocytes/macrophages among extracellular matrices ([2]; 10 μg/ml in bottom chamber, 24 hours, versus collagen, fibronectin): most strongly promoted

Compound: CCCc1nn(C)c2c(=O)[nH]c(-c3cc(S(=O)(=O)N4CCN(C)CC4)ccc3OCC)nc12 [sildenafil]
- CO ([3]; MCT + sildenafil 25 mpk oral everyday, 3 weeks (n = 4)): 49.6 ± 17.7 mL/min
- LVEDP [3, 4]: 3.6 ± 2.3 mmHg
- LVESP [3, 4]: 83.2 ± 4.7 mmHg
- RVEDP [3, 4]: 2.6 ± 1.3 mmHg
- RVESP [3, 4]: 48.4 ± 9.6 mmHg
- body weight, absolute change ([3]; MCT + sildenafil (n = 5)): 104.1 ± 26.4 g
- body weight, relative change ([3]; MCT + sildenafil (n = 5)): 49.8 ± 10.5%
- findings of D-shaped left ventricle (echocardiography) ([3]; number of animals with finding): three mice
